The values that follow come from patent US20050250819A1 (priority 2004, published 2005).

For orientation: IC50 means the concentration needed to halve the response being measured.

The test system of the first assay is Type III-dependent secretion of ExoU by P. aeruginosa PA103. Put plainly: Tertiary assay: Type III-dependent secretion of ExoU by P. aeruginosa PA103. It is filed as cell-based. To be noted: Pseudomonas aeruginosa, ExoU secreted into extracellular medium. The source says:
Tertiary assay: inhibition of Type III protein secretion of effectors from a Pseudomonas aeruginosa system. Type III protein secretion is used by P. aeruginosa to secrete several essential virulence determinants. One effector of the type III protein secretion system of P. aeruginosa PA103 is the virulence determinants ExoU.
The amount of Type III-dependent secretion of ExoU by P. aeruginosa PA103 can be determined in a cell-based assay by quantification of the 73.9 kDa ExoU protein secreted into the extracellular medium. Such quantitation can be achieved by growing strain PA103 in a deferrated medium in the presence of nitrilotriacetic acid (an inducer of Type III protein secretion in P. aeruginosa) and either in the presence or absence of putative inhibitors. After a prolonged growth period, the cells are sedimented and the supernatants concentrated by ammonium sulfate precipitation. The proteins in the resuspended pellets are separated by electrophoresis on SDS-polyacrylamide gels. After staining gels with Colloidal Blue™, the 73.9 kDa ExoU band is quantitated by scanning through an imager. The effects of inhibitors on the intensity of the ExoU band may be measured relative to that of untreated controls.
As for `O=C(N[C@@H](CSCc1ccccc1)C(=O)O)/C(=C\c1ccc(OCc2ccccc2)cc1)NC(=O)c1ccc(C(F)(F)F)cc1` [Compound 1, (R)-2-[3-(4-Benzyloxyphenyl)-2-(4-trifluoromethylbenzoylamino)acryloylamino]-3-benzylsulfanylpropionic acid], the midpoint of inhibition, the IC50, lay at 11.6 µM. On the same count and under the same terms, for `O=C(N[C@H](CSCc1ccccc1)C(=O)O)/C(=C\c1ccc(-c2ccccc2)cc1)NC(=O)c1ccc(C(F)(F)F)cc1` [Compound 6, (S)-3-Benzylsulfanyl-2-[3-biphenyl-4-yl-2-(4-trifluoromethylbenzoylamino)-acryloylamino]propionic acid] the value was 47 µM. On the same count and under the same terms, for `O=C(N[C@@H](CCSCc1ccccc1)C(=O)O)/C(=C\c1ccc(-c2ccccc2)cc1)NC(=O)c1ccc(C(F)(F)F)cc1` [Compound 7, (S)-4-Benzylsulfanyl-2-[3-biphenyl-4-yl-2-(4-trifluoromethylbenzoylamino)-acryloylamino]butyric acid] the value was 31 µM. Still for that read-out and setting: for `O=C(N[C@@H](CSCc1ccccc1)C(=O)O)/C(=C\c1ccc(Oc2ccccc2)cc1)NC(=O)c1ccc(C(F)(F)F)cc1` [Compound 17, (R)-3-Benzylsulfanyl-2-[3-(4-phenoxyphenyl)-2-(4-trifluoromethylbenzoylamino)-acryloylamino]propionic acid] the value was 49 µM; for `O=C(N[C@@H](CSCc1ccccc1)C(=O)O)/C(=C\c1cccc(OCc2ccccc2)c1)NC(=O)c1ccc(C(F)(F)F)cc1` [Compound 18, (R)-2-[3-(3-Benzyloxyphenyl)-2-(4-trifluoromethylbenzoylamino)acryloylamino]-3-benzylsulfanylpropionic acid], 57 µM; for `O=C(N[C@@H](CSCc1ccccc1)C(=O)O)/C(=C\c1ccc(Oc2ccccc2)cc1)NC(=O)c1ccc(Br)cc1` [Compound 20, (R)-3-Benzylsulfanyl-2-[2-(4-bromobenzoylamino)-3-(4-phenoxyphenyl)-acryloylamino]propionic acid], 37 µM. Regarding `O=C(N[C@@H](CSCc1ccccc1)C(=O)O)/C(=C\c1cccc(Oc2ccccc2)c1)NC(=O)c1ccc(I)cc1` [Compound 21, (R)-3-Benzylsulfanyl-2-[2-(4-iodobenzoylamino)-3-(3-phenoxyphenyl)-acryloylamino]propionic acid], it took 69 µM to reach half-maximal inhibition (IC50).

On to `O=C(N[C@@H](CSCc1ccccc1)C(=O)O)/C(=C\c1ccc(OC(F)(F)F)cc1)NC(=O)c1ccc(I)cc1` [Compound 22, (R)-3-Benzylsulfanyl-2-[2-(4-iodobenzoylamino)-3-(4-trifluoromethoxyphenyl)-acryloylamino]propionic acid], for which the 50% inhibitory concentration (IC50) was 47 µM.

As for `O=C(N[C@@H](COCc1ccccc1)C(=O)O)/C(=C\c1ccc(-c2ccccc2)cc1)NC(=O)c1ccc(C(F)(F)F)cc1` [Compound 23, (S)-3-Benzyloxy-2-[3-biphenyl-4-yl-2-(4-trifluoromethylbenzoylamino)-acryloylamino]propionic acid], the half-maximal inhibitory concentration (IC50) came to 29 µM. Still for that read-out and setting: for `O=C(N[C@@H](COCc1ccccc1)C(=O)O)/C(=C\c1ccc(Cl)c(Cl)c1)NC(=O)c1ccc(-c2ccccc2)cc1` [Compound 26, (S)-3-Benzyloxy-2-[2-[(biphenyl-4-carbonyl)amino]-3-(3,4-dichlorophenyl)-acryloylamino]propionic acid] the value was 24 µM.

The next assay concerns Type III protein secretion of the chimeric SopE‘-’Bla polypeptide (SPI1 type III protein secretion system). Nature of the assay: Primary assay: Type III protein secretion of the chimeric SopE'-'Bla polypeptide by Salmonella enterica. To be noted: read-out: SopE IC50(μM). It is filed as cell-based. The source says:
Primary assay: Type III protein secretion of the chimeric SopE‘-’Bla polypeptide by Salmonella enterica. This procedure is a cell-based assay that measures the type III-dependent secretion by Salmonella enterica of a plasmid-encoded chimeric polypeptide whose synthesis can be regulated, and which is endowed with an enzymatic activity that can be monitored colorimetrically by hydrolysis of a substrate that is unable to penetrate into the bacterial cytoplasm within the time constraints of the reaction. Thus, the colormetric reaction is not influenced by SopE‘-’Bla polypeptide in the bacterial cytplasm. Instead, it effectively measures the amount of polypeptide that has been secreted from the S. enterica cytoplasm to the extracellular medium via type III system protein secretion.
The SopE‘-’Bla recombinant polypeptide consists of two functionally distinct domains spliced together. The N-terminus domain is encoded by a polynucleotide region specifying the signal for type III secretion of the SopE polypeptide of S. enterica, an effector of the SPI1 type III protein secretion system. The C-terminus domain of SopE‘-’Bla consists of a 263 amino acid peptide sequence that corresponds to the TEM-1 β-lactamase expressed by plasmid pBR322 but without its N-terminal signal sequence. The TEM-1 β-lactamase part of the SopE‘-’Bla chimeric polypeptide is used as a reporter enzyme. It is capable of hydrolyzing nitrocefin resulting in a product whose accumulation can be monitored by colorimetric detection. The secretion of the SopE‘-’Bla chimeric polypeptide from the cytoplasm to the extracellular medium is dependent on type III protein secretion.
For this procedure, cells grown under conditions known to favor a functional SPI1 secretion system are induced for expression of the SopE‘-’Bla protein and grown either in the presence or in the absence of putative inhibitors for determined time. Nitrocefin is then added to the various cultures and its hydrolysis are used for quantitation. An inhibitor of Type III protein secretion is generally a compound that reduces the signal of the enzymatic reaction by decreasing the amount of SopE‘-’Bla secreted into the extracellular medium.
`CC(C)(S)C(NC(=O)/C(=C\c1ccc(-c2ccccc2)cc1)NC(=O)c1ccc(C(F)(F)F)cc1)C(=O)O` (centres unmarked) [Compound 90]: the IC50 amounted to 7.8 µM. Same read-out and setting: next, `O=C(NC(Cc1ccc(Cl)cc1)C(=O)O)/C(=C\c1ccc(Cl)c(Cl)c1)NC(=O)c1ccc(C(F)(F)F)cc1` (centres unmarked) [Compound 91]: 7.6 µM; `CC(C)(S)C(NC(=O)/C(=C\c1ccc(Cl)c(Cl)c1)NC(=O)c1ccc(-c2ccccc2)cc1)C(=O)O` (centres unmarked) [Compound 92]: 5 µM. For the compound `Cc1ccc(/C=C(/NC(=O)c2ccc(-c3ccccc3)cc2)C(=O)NC(C(=O)O)C(C)(C)S)s1` (centres unmarked) [Compound 93], the IC50 is 1.4 µM. Still for that read-out and setting: for `Cc1ccc(/C=C(/NC(=O)c2ccc(-c3ccccc3)cc2)C(=O)NC(C(=O)O)C(C)(C)S)o1` (centres unmarked) [Compound 94] the value was 55.2 µM; for `CC(C)(S)C(NC(=O)/C(=C\c1cccc(C(F)(F)F)c1)NC(=O)c1ccc(-c2ccccc2)cc1)C(=O)O` (centres unmarked) [Compound 95], 14.1 µM; for `O=C(O)CCCCNC(=O)/C(=C\c1cccc(C(F)(F)F)c1)NC(=O)c1ccc(-c2ccccc2)cc1` [Compound 99], 42 µM. Same read-out and setting: for `O=C(NC(CCSCc1ccccc1)C(=O)O)/C(=C\c1ccc(Cl)cc1Cl)NC(=O)c1ccc(-c2ccccc2)cc1` (centres unmarked) [Compound 104] the value was 3.8 µM; for `O=C(N/C(=C/c1ccc(Cl)c(Cl)c1)C(=O)N1CCCCC1C(=O)O)c1ccc(-c2ccccc2)cc1` (centres unmarked) [Compound 107], 8 µM. Still for that read-out and setting: for `NC(=O)C[C@@H](NC(=O)/C(=C\c1ccc(Cl)c(Cl)c1)NC(=O)c1ccc(-c2ccccc2)cc1)C(=O)O` [Compound 112] the value was 16.6 µM; for `O=C(O)CCCCNC(=O)/C(=C\c1ccc(Cl)c(Cl)c1)NC(=O)c1ccc(-c2ccccc2)cc1` [Compound 113], 14.5 µM. With `O=C(NC1(C(=O)O)CCCCC1)/C(=C\c1ccc(Cl)c(Cl)c1)NC(=O)c1ccc(-c2ccccc2)cc1` [Compound 114], the IC50 came out at 7.3 µM. Consider `CC(C)(S)C(NC(=O)/C(=C\c1ccc(Cl)c(Cl)c1)NC(=O)c1ccccc1)C(=O)O` (centres unmarked) [Compound 115], for which the half-maximal inhibitory concentration (IC50) was 61.6 µM. The same measure, in the same setting: next, `COc1cccc(C(=O)N/C(=C/c2ccc(Cl)c(Cl)c2)C(=O)NC(Cc2ccc(Cl)cc2)C(=O)O)c1` (centres unmarked) [Compound 117]: 15.5 µM; `O=C(N/C(=C/c1cccc(C(F)(F)F)c1)C(=O)N1CCCCC1C(=O)O)c1ccc(C(F)(F)F)cc1` (centres unmarked) [Compound 118]: 100 µM; `CC(C)(S)C(NC(=O)/C(=C\c1ccc(Cl)c(Cl)c1)NC(=O)c1ccc(C(F)(F)F)cc1)C(=O)O` (centres unmarked) [Compound 120]: 22.7 µM.

Turning to `CC(C)(S)C(NC(=O)/C(=C\c1ccc(C(F)(F)F)cc1)NC(=O)c1ccc(-c2ccccc2)cc1)C(=O)O` (centres unmarked) [Compound 124], the IC50 was determined as 16 µM. With `CCc1ccc(/C=C(/NC(=O)c2ccc(-c3ccccc3)cc2)C(=O)NC(C(=O)O)C(C)(C)S)cc1` (centres unmarked) [Compound 125], the IC50 came out at 20 µM. As to `CC(C)(S)C(NC(=O)/C(=C\c1ccc(-c2ccccc2)cc1)NC(=O)c1ccc(-c2ccccc2)cc1)C(=O)O` (centres unmarked) [Compound 126], the IC50 stood at 3 µM.

`CC(C)(S)C(NC(=O)/C(=C\c1cccc(Oc2ccccc2)c1)NC(=O)c1ccc(-c2ccccc2)cc1)C(=O)O` (centres unmarked) [Compound 127]: the IC50 stood at 10 µM. Still for that read-out and setting: next, `O=C(O)CCCCNC(=O)/C(=C\c1ccc(-c2ccccc2)cc1)NC(=O)c1ccc(C(F)(F)F)cc1` [Compound 132]: 42 µM. The same measure, in the same setting: next, `O=C(NC1(C(=O)O)CCCCC1)/C(=C\c1ccc(-c2ccccc2)cc1)NC(=O)c1ccc(C(F)(F)F)cc1` [Compound 135]: 50 µM; `Cc1ccccc1/C=C(/NC(=O)c1ccc(C(F)(F)F)cc1)C(=O)N[C@@H](CSCc1ccccc1)C(=O)O` [Compound 138]: 100 µM; `O=C(N/C(=C/c1ccc(-c2ccccc2)cc1)C(=O)N1CCCCC1C(=O)O)c1ccc(C(F)(F)F)cc1` (centres unmarked) [Compound 147]: 60 µM. The same measure, in the same setting: for `O=C(N[C@@H](CSCc1ccccc1)C(=O)O)/C(=C\c1ccccc1Cl)NC(=O)c1ccc(C(F)(F)F)cc1` [Compound 151] the value was 50 µM. For `NC(=O)C[C@@H](NC(=O)/C(=C\c1ccc(-c2ccccc2)cc1)NC(=O)c1ccc(C(F)(F)F)cc1)C(=O)O` [Compound 152], the half-maximal inhibitory concentration (IC50) was 100 µM. The same measure, in the same setting: for `CC(C)(S)C(NC(=O)/C(=C\c1cccc(Oc2ccccc2)c1)NC(=O)c1ccc(C(F)(F)F)cc1)C(=O)O` (centres unmarked) [Compound 160] the value was 16 µM; for `Cc1ccc(C(=O)N/C(=C/c2ccc(Cl)c(Cl)c2)C(=O)NC(C(=O)O)C(C)(C)S)cc1` (centres unmarked) [Compound 161], 56 µM.
